From publication PMC12675387, “Receptor interaction profiles of 4-alkoxy-2,6-dimethoxyphenethylamines (Ψ derivatives) and related amphetamines” (Frontiers in Pharmacology, 2025)

Assays:
h5-HT1A receptor = target: T1, h5-HT1A receptor (Homo sapiens, UniProt P08908); assay: Radioligand binding, 5-HT1A receptor ([3H]8-OH-DPAT)
T1 sequence (P08908 1-422): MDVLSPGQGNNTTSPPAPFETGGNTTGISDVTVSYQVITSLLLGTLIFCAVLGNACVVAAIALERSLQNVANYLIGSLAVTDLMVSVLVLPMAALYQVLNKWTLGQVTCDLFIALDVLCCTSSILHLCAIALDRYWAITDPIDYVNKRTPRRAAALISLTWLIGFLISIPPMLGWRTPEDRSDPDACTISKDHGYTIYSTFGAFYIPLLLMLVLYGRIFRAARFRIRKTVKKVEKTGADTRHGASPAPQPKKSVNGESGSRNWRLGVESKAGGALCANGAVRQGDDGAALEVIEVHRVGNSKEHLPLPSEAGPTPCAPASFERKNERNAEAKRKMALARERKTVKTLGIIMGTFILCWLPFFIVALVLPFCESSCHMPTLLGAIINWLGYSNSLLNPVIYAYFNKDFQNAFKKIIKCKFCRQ

[1] = cited from earlier work
mTAAR1 = mTAAR1 (Mus musculus, UniProt Q923Y8); assay: Radioligand binding, mouse TAAR1 ([3H]RO5166017)
h5-HT2C receptor = target: T2, h5-HT2C receptor (Homo sapiens, UniProt P28335); assay: Radioligand binding, 5-HT2C receptor ([3H]mesulergine)
T2 sequence (P28335 33-458): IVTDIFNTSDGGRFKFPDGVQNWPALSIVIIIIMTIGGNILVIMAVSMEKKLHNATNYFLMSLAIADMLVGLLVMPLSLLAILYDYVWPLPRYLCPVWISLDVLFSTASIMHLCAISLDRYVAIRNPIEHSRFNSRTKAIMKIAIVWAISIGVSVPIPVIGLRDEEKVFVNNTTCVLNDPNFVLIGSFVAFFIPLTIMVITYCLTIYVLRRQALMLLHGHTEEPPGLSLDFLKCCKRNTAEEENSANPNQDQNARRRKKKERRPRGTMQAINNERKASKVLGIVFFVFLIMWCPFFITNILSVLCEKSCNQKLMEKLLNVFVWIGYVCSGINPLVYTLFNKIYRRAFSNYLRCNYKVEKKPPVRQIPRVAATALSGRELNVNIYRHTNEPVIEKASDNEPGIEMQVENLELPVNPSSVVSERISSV

human TAAR1 = target: T3, human TAAR1 (Homo sapiens, UniProt Q96RJ0); assay: Activation potency at human TAAR1 (cAMP assay, HEK 293 cells); assay type: cell-based
T3 construct: expressed in transfected cells; host or cells: HEK 293 cells
T3 sequence (Q96RJ0 1-339): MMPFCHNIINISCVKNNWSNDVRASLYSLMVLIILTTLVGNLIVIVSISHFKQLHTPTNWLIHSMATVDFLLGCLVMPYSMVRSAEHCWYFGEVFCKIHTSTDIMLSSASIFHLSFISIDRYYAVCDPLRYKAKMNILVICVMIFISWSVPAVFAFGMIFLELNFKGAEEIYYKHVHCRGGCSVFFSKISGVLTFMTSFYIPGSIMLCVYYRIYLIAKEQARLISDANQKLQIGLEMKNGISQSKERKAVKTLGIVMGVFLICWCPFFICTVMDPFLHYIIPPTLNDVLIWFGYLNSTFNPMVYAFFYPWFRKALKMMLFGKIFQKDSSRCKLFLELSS
Experimental: The activation potency at the human TAAR1 was determined as previously described by [Luethi et al. (2018)]. In summary, recombinant HEK 293 cells stably transfected with the human TAAR1 were grown in culture flasks composed of 30 mL high glucose DMEM with 10% heat inactivated fetal calf serum, […] Geneticin, and […] hygromycin B at 37 °C and 5% CO2. The cells were grown to 80%–90% confluency before collection. The cells were washed with phosphate-buffer saline (PBS) and 5 mL of trypsin/EDTA solution were added for 5 min at 37 °C to detach the cells from the flask. Then, 45 mL of fresh medium were added to the flask and the total mixture was put into a falcon tube, which was centrifuged for 3 min at 900 rpm at room temperature. The supernatant was aspirated, and the remaining cell pellet was resuspended in fresh medium to a concentration of 5 × 10^5 cells per mL. Next, 100 μL of the cell mixture was transferred to a 96 well plate (BIOCOAT 6640, Becton Dickinson, Allschwil, Switzerland) and incubated for 20 h at 37 °C. For the cAMP assay, the medium was removed and replaced with 50 μL PBS lacking calcium or magnesium ions. The PBS was extracted via snap inversion and the plate was gently tapped on tissue to remove any remaining PBS solution. The plate was then incubated with Krebs-Ringer Bicarbonate buffer (90 μL/well; KRB, Sigma-Aldrich) containing 1 mM IBMX for 1 h at 37 °C and 5% CO2/95% air. Test compounds were investigated in duplicate at various concentrations ranging from 300 pM to 30 μM. A cAMP standard curve (concentration range of 0.13 nM–10 μM) was included on each 96 well plate. Additionally, a reference plate was used containing RO5256390, β-phenylethylamine and p-tyramine. Cells were incubated with either 30 μL of compound solution, β-phenylethylamine (which represented the maximal response) or a basal control in PBS (supplemented with 1 mM IBMX) for 40 min at 37 °C. Thereafter, the cells were incubated with 50 μL of 3× detection mix solution (consisting of Ru-cAMP Alexa700 anti-cAMP antibody and lysis buffer) for 40 min at 37 °C, while covered with black lids and under forceful shaking. The fluorescence (456 nm excitation wavelength; 630 and 700 nm emission wavelengths) was measured using a NanoScan reader (Innovate Optische Messtechnik, Berlin, Germany) and the FRET signal was calculated using the following equation: FRET (700 nm) – P × FRET (630 nm). P was equal to Ru (700 nm)/Ru (630 nm).

[2] = anecdotal, ref Shulgin and Shulgin, 1991

mTAAR1, sequence (Q923Y8 whole entry): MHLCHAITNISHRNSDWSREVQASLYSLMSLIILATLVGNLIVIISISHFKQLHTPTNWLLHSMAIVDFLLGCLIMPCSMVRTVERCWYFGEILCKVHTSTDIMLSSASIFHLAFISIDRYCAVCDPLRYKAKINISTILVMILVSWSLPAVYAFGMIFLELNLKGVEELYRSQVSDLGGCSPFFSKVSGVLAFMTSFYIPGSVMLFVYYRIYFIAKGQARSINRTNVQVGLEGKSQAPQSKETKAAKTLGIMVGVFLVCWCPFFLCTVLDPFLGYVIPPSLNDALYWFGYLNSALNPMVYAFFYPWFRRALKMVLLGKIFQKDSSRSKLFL

In the case of `COc1cc(OC)c(CC(C)N)c(OC)c1` (stereo not shown) [TMA-6, 2,4,6-trimethoxyamphetamine], the Ki (h5-HT1A receptor) is given as > 5600 nM, the “duration of effects in humans” value [1, 2] is given as 12 to 16 h and the “psychoactive dose in humans” value [1, 2] is given as 25 to 50 mg. The Ki (mTAAR1) was 850 ± 20 nM, the Ki (h5-HT2C receptor) was 1800 nM and the EC50 (human TAAR1) was > 30000 nM.

For `COc1cc(OC)c(CCN)c(OC)c1` [Ψ-2C-O-1, 2,4,6-trimethoxyphenethylamine], the Ki (h5-HT1A receptor) is listed as 960 ± 90 nM, the activity in humans ([1]; doses up to 300 mg) is listed as “inactive” and the Ki (mTAAR1) is listed as 590 ± 20 nM. It also gave a Ki (h5-HT2C receptor) of 1200 nM and an EC50 (human TAAR1) of 2300 nM.

For `CCOc1cc(OC)c(CCN)c(OC)c1` [Ψ-2C-O-2, 2,6-dimethoxy-4-ethoxyphenethylamine], the Ki (h5-HT1A receptor) was 710 ± 30 nM, the Ki (mTAAR1) was 230 ± 20 nM and the Ki (h5-HT2C receptor) was 1500 nM. It also gave an EC50 (human TAAR1) of 230 ± 170 nM.

For `C=C(C)COc1cc(OC)c(CCN)c(OC)c1` [Ψ-2C-O-3, 2,6-dimethoxy-4-methallyloxyphenethylamine], the Ki (h5-HT1A receptor) was 1010 nM, the Ki (mTAAR1) was 120 ± 20 nM and the Ki (h5-HT2C receptor) was 210 ± 140 nM. It also gave an EC50 (human TAAR1) of 100 ± 60 nM.

Work on `C=CCOc1cc(OC)c(CCN)c(OC)c1` [Ψ-2C-O-16, 4-allyloxy-2,6-dimethoxyphenethylamine] yielded a Ki (h5-HT1A receptor) of 910 ± 60 nM, a Ki (mTAAR1) of 150 ± 20 nM and a Ki (h5-HT2C receptor) of 500 ± 230 nM. The EC50 (human TAAR1) was 34 ± 15 nM.

Work on `COc1cc(OCCF)cc(OC)c1CCN` [Ψ-2C-O-21, 2,6-dimethoxy-4-(2-fluoroethoxy)phenethylamine] yielded a Ki (h5-HT1A receptor) of 1600 nM, a Ki (mTAAR1) of 320 ± 30 nM and a Ki (h5-HT2C receptor) of 3500 nM. The EC50 (human TAAR1) was 80 ± 43 nM.

Work on `COc1cc(OCC(F)F)cc(OC)c1CCN` [Ψ-2C-O-21.5, 4-(2,2-difluoroethoxy)-2,6-dimethoxyphenethylamine] yielded a Ki (h5-HT1A receptor) of 1300 nM, a Ki (mTAAR1) of 220 ± 40 nM and a Ki (h5-HT2C receptor) of 2800 nM. For the same molecule, the EC50 (human TAAR1) was 41 ± 9 nM.

Work on `COc1cc(OCC(F)(F)F)cc(OC)c1CCN` [Ψ-2C-O-22, 2,6-dimethoxy-4-(2,2,2-trifluoroethoxy)phenethylamine] yielded a Ki (h5-HT1A receptor) of 2400 nM, a Ki (mTAAR1) of 210 ± 40 nM and a Ki (h5-HT2C receptor) of 2200 nM. The EC50 (human TAAR1) was 47 ± 22 nM.

With `COc1cc(OCc2ccccc2)cc(OC)c1CCN` [Ψ-2C-O-27, 4-benzyloxy-2,6-dimethoxyphenethylamine] the Ki (h5-HT1A receptor) was 2100 nM, the Ki (mTAAR1) was 610 ± 6 nM and the Ki (h5-HT2C receptor) was 110 ± 10 nM. It also gave an EC50 (human TAAR1) of 3000 nM.

In the case of `COc1cc(OC(F)F)cc(OC)c1CCN` [Ψ-2C-O-35, 4-(2,2-difluoromethoxy)-2,6-dimethoxyphenethylamine], the Ki (h5-HT1A receptor) is listed as 4440 nM, the “dose with some psychoactivity in humans” value ([1]; initial doses, anecdotal, ref Trachsel et al., 2013) is listed as 17 mg and the Ki (mTAAR1) is listed as 680 ± 120 nM. The Ki (h5-HT2C receptor) was 510 ± 140 nM and the EC50 (human TAAR1) was > 30000 nM.

For `COc1cc(OC(F)F)cc(OC)c1CC(C)N` (stereo not shown) [Ψ-DODFMO, 4-(2,2-difluoromethoxy)-2,6-dimethoxyamphetamine], the Ki (h5-HT1A receptor) was 5100 nM, the Ki (mTAAR1) was 860 ± 40 nM and the Ki (h5-HT2C receptor) was 1800 nM. The EC50 (human TAAR1) was > 30000 nM.

In the case of `C=CCOc1cc(OC)c(CC(C)N)c(OC)c1` (stereo not shown) [Ψ-MALM, 4-allyloxy-2,6-dimethoxyamphetamine], the Ki (h5-HT1A receptor) is reported as > 5600 nM, the Ki (mTAAR1) is reported as 270 ± 50 nM and the Ki (h5-HT2C receptor) is reported as 780 ± 330 nM. For the same molecule, the EC50 (human TAAR1) was > 30000 nM.

For `COc1cc(OCc2ccccc2)cc(OC)c1CC(C)N` (stereo not shown) [Ψ-MBnM, 4-benzyloxy-2,6-dimethoxyamphetamine], the Ki (h5-HT1A receptor) was > 5600 nM, the Ki (mTAAR1) was 190 ± 10 nM and the Ki (h5-HT2C receptor) was 270 ± 50 nM. For the same molecule, the EC50 (human TAAR1) was > 30000 nM.

With `COc1cc(OCC(F)F)cc(OC)c1CC(C)N` (stereo not shown) [Ψ-MDFEM, 4-(2,2-difluoroethoxy)-2,6-dimethoxyamphetamine] the Ki (h5-HT1A receptor) was > 5600 nM, the Ki (mTAAR1) was 500 ± 70 nM and the Ki (h5-HT2C receptor) was 9500 nM. The EC50 (human TAAR1) was 850 ± 500 nM.

For `CCOc1cc(OC)c(CC(C)N)c(OC)c1` (stereo not shown) [Ψ-MEM, 2,6-dimethoxy-4-ethoxyamphetamine], the Ki (h5-HT1A receptor) was > 5600 nM, the Ki (mTAAR1) was 400 ± 20 nM and the Ki (h5-HT2C receptor) was 5100 nM. For the same molecule, the EC50 (human TAAR1) was 2200 nM.

In the case of `COc1cc(OCCF)cc(OC)c1CC(C)N` (stereo not shown) [Ψ-MFEM, 2,6-dimethoxy-4-(2-fluoroethoxy)amphetamine], the Ki (h5-HT1A receptor) is reported as > 5600 nM, the Ki (mTAAR1) is reported as 560 ± 10 nM and the Ki (h5-HT2C receptor) is reported as 10000 nM. The EC50 (human TAAR1) was 1900 nM.

With `C=C(C)COc1cc(OC)c(CC(C)N)c(OC)c1` (stereo not shown) [Ψ-MMALM, 2,6-dimethoxy-4-methallyloxyamphetamine] the Ki (h5-HT1A receptor) was > 5600 nM, the Ki (mTAAR1) was 250 ± 50 nM and the Ki (h5-HT2C receptor) was 290 ± 90 nM. It also gave an EC50 (human TAAR1) of 2500 nM.

For `COc1cc(OCC(F)(F)F)cc(OC)c1CC(C)N` (stereo not shown) [Ψ-MTFEM, 2,6-dimethoxy-4-(2,2,2-trifluoroethoxy)amphetamine], the Ki (h5-HT1A receptor) was > 5600 nM, the Ki (mTAAR1) was 410 ± 80 nM and the Ki (h5-HT2C receptor) was 5500 nM. For the same molecule, the EC50 (human TAAR1) was 1100 nM.
